Data published in patent US20230146455A1, “TREATMENT OF INFLAMMATORY DISEASES WITH PEPTIDES AND PHARMACEUTICAL COMPOSITIONS” (Yuyu Pharma, Inc., priority 2020, published 2023).
“Also recorded” adds a separate entry of the source. Where a SMILES comes first, the peptide text is derived from it. [ ]: non-standard residue; d: D form. Hyp = O=C(O)[C@@H]1C[C@@H](O)CN1

Tested on: cytokine and chemokine release in human peripheral blood mononuclear cells (hPBMCs)
Test: Luminex multiplex, 30 cytokines and chemokines, LPS stimulated hPBMCs (Example 9, Study 2), whole panel
Assay type: cell-based
Conditions: for LPS-induced pro-inflammatory cytokines and chemokines, whole panel (in words): LPS 5 ug/mL 24 hrs, 100 uM to 1 nM
Experimental: Human PBMCs frozen purchased from ATCC in a cryo-preservative were thawed, washed with Hank's Balanced Salt Solution containing 10% fetal bovine serum, and seeded onto a 24-well plate at a density of 0.5×10^6 cells/well with culture RPMI media containing 10% fetal bovine serum in growth media in a 24 well plate for 24 hrs and maintained at 37° C. in an atmosphere of 95% air and 5% CO2. At the end of 24 hr culture, cells are pretreated with YY-101, YDE-011 and YDE-043 or reference compound, Xiidra® at various concentrations for 2 h before stimulation. An equal volume of 0.5% DMSO is used as a vehicle control. Then, the cells are treated with LPS. Supernatants from treated cells are harvested at 24 hr post-LPS treatment and placed in 96 well for Luminex cytokine & chemokine profiling using a Luminex 200 multiplex assay.
Human PBMCs frozen in a cryopreserve was thawed, washed with Hank's Balanced Salt Solution containing 10% Fetal bovine serum, and seeded onto a 24-well plate at a density of 0.5×10^6 cells/well with culture RPMI media containing 10% Fetal bovine serum in growth media in a 24 well plate for 24 hrs and maintained at 37° C. in an atmosphere of 95% air and 5% CO2.
Treatment Human PBMCs were pretreated with YY-101, YDE-011 and YDE-043 or reference compound; Xiidra® at various concentration (ranging from 1 nM to 100 uM) for 2 h before stimulation. An equal volume of 0.5% DMSO was used as a vehicle control. Then, the cells were treated with LPS at 5 ug/ml. The supernatants from treated cells were harvested at 24 h and placed in a 96 well for Luminex cytokine & chemokine profiling using a Luminex 200 multiplex assay (Luminex; R&D system, USA).
The main study arm with triplicate wells per group in a 24-well plate: • 1. Blank • 2. PBMC: 0.5% DMSO • 3. PBMC+LPS (5 ug/ml) • 4. PBMC+YY-101 100 uM • 5. PBMC+YY-101 10 uM • 6. PBMC+YY-101 1 uM • 7. PBMC+YY-101 0.1 uM • 8. PBMC+YY-101 0.01 uM • 9. PBMC+LPS (5 ug/ml)+Xiidra®100 uM • 10. PBMC+LPS (5 ug/ml)+Xiidra® 10 uM • 11. PBMC+LPS (5 ug/ml)+Xiidra® 1 uM • 12. PBMC+LPS (5 ug/ml)+Xiidra®0.1 uM • 13. PBMC+LPS (5 ug/ml)+Xiidra®0.01 uM • 14. PBMC+LPS (5 ug/ml)+Xiidra®0.001 uM • 15. PBMC+LPS (5 ug/ml)+YY-101 100 uM • 16. PBMC+LPS (5 ug/ml)+YY-101 10 uM • 17. PBMC+LPS (5 ug/ml)+YY-101 1 uM • 18. PBMC+LPS (5 ug/ml)+YY-101 0.1 uM • 19. PBMC+LPS (5 ug/ml)+YY-101 0.01 uM • 20. PBMC+LPS (5 ug/ml)+YY-101 0.001 uM • 21. PBMC+LPS (5 ug/ml)+YDE-011 100 uM • 22. PBMC+LPS (5 ug/ml)+YDE-011 10 uM • 23. PBMC+LPS (5 ug/ml)+YDE-011 1 uM • 24. PBMC+LPS (5 ug/ml)+YDE-011 0.1 uM • 25. PBMC+LPS (5 ug/ml)+YDE-011 0.01 uM • 26. PBMC+LPS (5 ug/ml)+YDE-011 0.001 uM • 27. PBMC+LPS (5 ug/ml)+YDE-043 100 uM • 28. PBMC+LPS (5 ug/ml)+YDE-043 10 uM • 29. PBMC+LPS (5 ug/ml)+YDE-043 1 uM • 30. PBMC+LPS (5 ug/ml)+YDE-043 0.1 uM • 31. PBMC+LPS (5 ug/ml)+YDE-043 0.01 uM • 32. PBMC+LPS (5 ug/ml)+YDE-043 0.001 uM
Multiplex assay was used to measure 30 cytokines and chemokines. The 1:2, 1:10 and 1:200 diluted cell supernatant and serial dilution of the standard were dispensed into a 96 well plate at 50 ul/well. Then, the pre-mixed cocktail of antibody-coated magnetic beads was dispensed at 50 ul/well and incubated at room temperature for 2 h in a horizontal orbital microplate shaker at 800±500 rpm. The beads were washed using a magnetic device to prevent loss. […] The data was calculated with a standard five-parameter logistic nonlinear regression analysis of the data (xPonent software 4.2, USA). […]

| Structure (SMILES) | LPS-induced pro-inflammatory cytokines and chemokines, whole panel (in words) | LPS-induced pro-inflammatory cytokines and chemokines, whole panel (in words) (listed as YDE043) | basal levels of cytokine/chemokine production (in words) (no LPS, up to 100 μM) |
| --- | --- | --- | --- |
| CC(C)C[C@H](NC(=O)CNC(=O)[C@H](CC(C)C)NC(=O)[C@H](CCC(N)=O)NC(=O)CNC(=O)[C@@H]1C[C@@H](O)CN1)C(=O)N[C@@H](C)C(=O)NCC(=O)N1CCC[C@H]1C(=O)N[C@@H](CCCCN)C(=O)O [YDE-011] (H-[Hyp]GQLGLAGPK-OH) | effectively and potently reduced; also recorded: more potent and effective immunomodulators | – | – |
| CC(C)C[C@H](NC(=O)[C@H](CCC(N)=O)NC(=O)CNC(=O)[C@@H]1C[C@@H](O)CN1)C(=O)NCC(=O)O [YDE-043] (H-[Hyp]GQLG-OH; N-terminus and C-terminus assumed) | effectively and potently reduced | more potent and effective immunomodulators | – |
| CC(C)C[C@H](NC(=O)CNC(=O)[C@H](CC(=O)O)NC(=O)[C@H](CCC(N)=O)NC(=O)CNC(=O)[C@@H]1C[C@@H](O)CN1)C(=O)N[C@@H](C)C(=O)NCC(=O)N1CCC[C@H]1C(=O)N[C@@H](CCCCN)C(=O)O [YY-101] (H-[Hyp]GQDGLAGPK-OH; N-terminus and C-terminus assumed) | effectively and potently reduced | – | didn't affect the basal levels of most of cytokine/chemokine production; also recorded: didn't affect the basal levels of cytokine production except TIMP-1 |
